The target of test [1] is T1, Human PDGFRβ, cytoplasmic domain (GST-PDGFRβ) (Homo sapiens, UniProt P09619).
T1 construct: made in house
The test is described as follows: Human PDGFRβ biochemical inhibition assay (off-chip Mobility Shift Assay). The method, boiled down:
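GST-tagged cytoplasmic domain (aa 557-1106) from baculovirus was incubated 1 h at room temperature with compound, CSKtide, ATP at Km and Mg²⁺ in HEPES buffer, pH 7.5. Phosphorylated and unphosphorylated peptide were separated by off-chip mobility shift, and the product ratio P/(P+S) gave percent inhibition.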

Test [2] has as its target T2, Human PDGFRα, cytoplasmic domain (GST-PDGFRα) (Homo sapiens, UniProt P16234).
T2 construct: made in house
The test is described as follows: Human PDGFRα biochemical inhibition assay (off-chip Mobility Shift Assay).

T2 sequence (P16234 550-1089 T674I): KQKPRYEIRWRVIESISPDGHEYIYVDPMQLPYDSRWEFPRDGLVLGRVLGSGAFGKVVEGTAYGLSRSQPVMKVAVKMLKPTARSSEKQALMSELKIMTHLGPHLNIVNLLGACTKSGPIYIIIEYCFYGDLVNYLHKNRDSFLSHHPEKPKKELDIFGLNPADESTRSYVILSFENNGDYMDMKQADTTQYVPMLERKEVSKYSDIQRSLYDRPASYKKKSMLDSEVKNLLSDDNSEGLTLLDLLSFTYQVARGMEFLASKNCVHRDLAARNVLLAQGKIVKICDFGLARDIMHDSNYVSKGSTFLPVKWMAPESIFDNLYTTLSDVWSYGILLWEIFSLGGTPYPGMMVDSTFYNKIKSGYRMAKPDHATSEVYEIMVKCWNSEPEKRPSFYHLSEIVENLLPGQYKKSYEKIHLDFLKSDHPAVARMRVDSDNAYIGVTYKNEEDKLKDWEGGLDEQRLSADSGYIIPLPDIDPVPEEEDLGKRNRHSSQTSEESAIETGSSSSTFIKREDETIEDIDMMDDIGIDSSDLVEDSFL
T1 sequence (P09619 with tags, fused parts or gaps): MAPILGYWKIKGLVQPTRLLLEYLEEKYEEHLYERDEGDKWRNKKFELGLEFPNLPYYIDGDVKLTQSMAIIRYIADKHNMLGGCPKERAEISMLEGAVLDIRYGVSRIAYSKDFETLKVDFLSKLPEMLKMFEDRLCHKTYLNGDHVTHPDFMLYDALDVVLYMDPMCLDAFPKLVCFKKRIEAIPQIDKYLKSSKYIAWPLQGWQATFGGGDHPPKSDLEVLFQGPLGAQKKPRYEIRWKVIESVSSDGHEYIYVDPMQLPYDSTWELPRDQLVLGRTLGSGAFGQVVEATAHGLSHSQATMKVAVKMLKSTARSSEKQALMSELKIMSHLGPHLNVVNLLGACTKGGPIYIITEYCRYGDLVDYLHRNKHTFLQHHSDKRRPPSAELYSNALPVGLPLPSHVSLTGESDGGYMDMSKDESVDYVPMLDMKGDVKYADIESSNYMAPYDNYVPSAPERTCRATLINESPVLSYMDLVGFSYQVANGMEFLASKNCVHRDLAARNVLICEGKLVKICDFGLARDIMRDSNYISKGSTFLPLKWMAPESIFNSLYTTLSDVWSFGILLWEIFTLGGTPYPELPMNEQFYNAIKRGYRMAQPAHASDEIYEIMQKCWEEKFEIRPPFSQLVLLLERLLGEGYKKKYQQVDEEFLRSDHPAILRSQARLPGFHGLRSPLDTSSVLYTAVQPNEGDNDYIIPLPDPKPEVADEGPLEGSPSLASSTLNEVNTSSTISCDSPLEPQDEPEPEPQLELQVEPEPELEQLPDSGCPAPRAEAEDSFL

As for `CCn1cc2ncc(N[C@@H](C)c3cc(NC(=O)Cc4cncc(C)c4)ccc3F)nc2n1` [Compound 652, (S)-N-(3-(1-((2-ethyl-2H-pyrazolo[3,4-b]pyrazin-6-yl)amino)ethyl)-4-fluorophenyl)-2-(5-methylpyridin-3-yl) acetamide], the IC50 in test [1] is 300 to 1000 nM; in test [2] it was below 300 nM.

Regarding `CCn1cc2ncc(N[C@@H](C)c3cc(NC(=O)Cc4cncc(F)c4)ccc3F)nc2n1` [Compound 653, (S)-N-(3-(1-((2-ethyl-2H-pyrazolo[3,4-b]pyrazin-6-yl)amino)ethyl)-4-fluorophenyl)-2-(5-fluoropyridin-3-yl)acetamide], the figures for the IC50 in test [1] and in test [2] were at least 1000 nM and below 300 nM, respectively.

For `CCn1cc2ncc(N[C@@H](C)c3cc(NC(=O)Cc4ccc(C(F)(F)F)cn4)ccc3F)nc2n1` [Compound 654, (S)-N-(3-(1-((2-ethyl-2H-pyrazolo[3,4-b]pyrazin-6-yl)amino)ethyl)-4-fluorophenyl)-2-(5-(trifluoromethyl)pyridin-2-yl) acetamide], the values for the half-maximal inhibitory concentration (IC50) in test [1] and in test [2] were at least 1000 nM and below 300 nM, respectively.

Take `CCn1cc2ncc(N[C@@H](C)c3cc(NC(=O)Cc4ccc(C5CC5)cn4)ccc3F)nc2n1` [Compound 655, (S)-2-(5-cyclopropylpyridin-2-yl)-N-(3-(1-((2-ethyl-2H-pyrazolo[3,4-b]pyrazin-6-yl)amino)ethyl)-4-fluorophenyl) acetamide]: the figures for the IC50 in test [1] and in test [2] were at least 1000 nM and below 300 nM, respectively.

In the case of `CCn1cc2ncc(N[C@@H](C)c3cc(NC(=O)Cc4ccc(F)cn4)ccc3C)nc2n1` [Compound 656, (S)-N-(3-(1-((2-ethyl-2H-pyrazolo[3,4-b]pyrazin-6-yl)amino)ethyl)-4-methylphenyl)-2-(5-fluoropyridin-2-yl) acetamide], the IC50 in test [1] and in test [2] was below 300 nM in each case.

On to `CCn1cc2ncc(N[C@@H](C)c3cc(NC(=O)Cc4ccc(Cl)cn4)ccc3C)nc2n1` [Compound 657, (S)-2-(5-chloropyridin-2-yl)-N-(3-(1-((2-ethyl-2H-pyrazolo[3,4-b]pyrazin-6-yl)amino)ethyl)-4-methylphenyl)acetamide], for which the IC50 in test [1] and in test [2] was below 300 nM in each case.

Turning to `CCn1cc2ncc(N[C@@H](C)c3cc(NC(=O)Cc4ccc(C5CC5)nc4)ccc3F)nc2n1` [Compound 658, (S)-2-(6-cyclopropylpyridin-3 - yl)-N-(3-(1-((2-ethyl-2H-pyrazolo[3,4-b]pyrazin-6-yl)amino)ethyl)-4-fluorophenyl) acetamide], the IC50 in test [1] is at least 1000 nM; in test [2], 300 to 1000 nM.

Consider `CCn1cc2ncc(N[C@@H](C)c3cc(NC(=O)Cc4cncc(F)c4)ccc3C)nc2n1` [Compound 659, (S)-N-(3-(1-((2-ethyl-2H-pyrazolo[3,4-b]pyrazin-6-yl)amino)ethyl)-4-methylphenyl)-2-(5-fluoropyridin-3-yl) acetamide], for which the 50% inhibitory concentration (IC50) in test [1] and in test [2] was below 300 nM in each case.

For the compound `CCn1cc2ncc(N[C@@H](C)c3cc(NC(=O)Cc4ccc(C)cn4)ccc3C)nc2n1` [Compound 660, (S)-N-(3-(1-((2-ethyl-2H-pyrazolo[3,4-b]pyrazin-6-yl)amino)ethyl)-4-methylphenyl)-2-(5-methylpyridin-2-yl) acetamide], the concentration for half-maximal inhibition (IC50) in test [1] is 300 to 1000 nM; in test [2], below 300 nM.

For `CCn1cc2ncc(N[C@@H](C)c3cc(NC(=O)Cc4ccc(C(F)(F)F)cn4)ccc3C)nc2n1` [Compound 661, (S)-N-(3-(1-((2-ethyl-2H-pyrazolo[3,4-b]pyrazin-6-yl)amino)ethyl)-4-methylphenyl)-2-(5-(trifluoromethyl)pyridin-2-yl)acetamide], the values for the IC50 in test [1] and in test [2] were 300 to 1000 nM and below 300 nM, respectively.

Consider `CCn1cc2ncc(N[C@@H](C)c3cc(NC(=O)Cc4ccc(C5CC5)cn4)ccc3C)nc2n1` [Compound 662, (S)-2-(5-cyclopropylpyridin-2-yl)-N-(3-(1-((2-ethyl-2H-pyrazolo[3,4-b]pyrazin-6-yl)amino)ethyl)-4-methylphenyl) acetamide], for which the results for the IC50 in test [1] and in test [2] were at least 1000 nM and below 300 nM, respectively.

Take `CCn1cc2ncc(N[C@@H](C)c3cc(NC(=O)Cc4cncc(Cl)c4)ccc3F)nc2n1` [Compound 663, (S)-2-(5-chloropyridin-3-yl)-N-(3-(1-((2-ethyl-2H-pyrazolo[3,4-b]pyrazin-6-yl)amino)ethyl)-4-fluorophenyl)acetamide]: the IC50 was 300 to 1000 nM in test [1] and below 300 nM in test [2].

Consider `CCn1cc2ncc(N[C@@H](C)c3cc(NC(=O)Cc4ccc(C)nc4)ccc3C)nc2n1` [Compound 664, (S)-N-(3-(1-((2-ethyl-2H-pyrazolo[3,4-b]pyrazin-6-yl)amino)ethyl)-4-methylphenyl)-2-(6-methylpyridin-3-yl) acetamide], for which the half-maximal inhibitory concentration (IC50) is at least 1000 nM in test [1] and below 300 nM in test [2].

With `CCn1cc2ncc(N[C@@H](C)c3cc(NC(=O)Cc4ccc(C5CC5)nc4)ccc3C)nc2n1` [Compound 665, (S)-2-(6-cyclopropylpyridin-3-yl)-N-(3-(1-((2-ethyl-2H-pyrazolo[3,4-b]pyrazin-6-yl)amino)ethyl)-4-methylphenyl) acetamide], the figures for the IC50 in test [1] and in test [2] were at least 1000 nM and below 300 nM, respectively.

For `CCn1cc2ncc(N[C@@H](C)c3cc(NC(=O)Cc4cncc(C)c4)ccc3C)nc2n1` [Compound 666, (S)-N-(3-(1-((2-ethyl-2H-pyrazolo[3,4-b]pyrazin-6-yl)amino)ethyl)-4-methylphenyl)-2-(5-methylpyridin-3-yl) acetamide], the concentration for half-maximal inhibition (IC50) in test [1] and in test [2] was below 300 nM in each case.

Consider `CCn1cc2ncc(N[C@@H](C)c3cc(NC(=O)Cc4ccc(C5CCC5)cn4)ccc3F)nc2n1` [Compound 667, (S)-2-(5-cyclobutylpyridin-2-yl)-N-(3-(1-((2-ethyl-2H-pyrazolo[3,4-b]pyrazin-6-yl)amino)ethyl)-4-fluorophenyl) acetamide], for which the IC50 in test [1] was at least 1000 nM; in test [2], below 300 nM.

With `CCn1cc2ncc(N[C@@H](C)c3cc(NC(=O)Cc4ccc(Cl)c(C)n4)ccc3F)nc2n1` [Compound 668, (S)-2-(5-chloro-6-methylpyridin-2-yl)-N-(3-(1-((2-ethyl-2H-pyrazolo[3,4-b]pyrazin-6-yl)amino)ethyl)-4-fluorophenyl)acetamide], the IC50 in test [1] and in test [2] was below 300 nM throughout.

For the compound `CCn1cc2ncc(N[C@@H](C)c3cc(NC(=O)Cc4ccc(C5CCC5)cn4)ccc3C)nc2n1` [Compound 669, (S)-2-(5-cyclobutylpyridin-2-yl)-N-(3-(1-((2-ethyl 2H-pyrazolo[3,4-b]pyrazin-6-yl)amino)ethyl)-4-methylphenyl) acetamide], the IC50 in test [1] was 300 to 1000 nM; in test [2], below 300 nM.

`CCn1cc2ncc(N[C@@H](C)c3cc(NC(=O)Cc4ccc(Cl)c(C)n4)ccc3C)nc2n1` [Compound 670, (S)-2-(5-chloro-6-methylpyridin-2-yl)-N-(3-(1-((2-ethyl-2H-pyrazolo[3,4-b]pyrazin-6-yl)amino)ethyl)-4-methylphenyl)acetamide]: the concentration for half-maximal inhibition (IC50) in test [1] and in test [2] was below 300 nM throughout.

On to `CCn1cc2ncc(N[C@@H](C)c3cc(NC(=O)Cc4ccc(C5CCC5)nc4)ccc3F)nc2n1` [Compound 671, (S)-2-(6-cyclobutylpyridin-3-yl)-N-(3-(1-((2-ethyl-2H-pyrazolo[3,4-b]pyrazin-6-yl)amino)ethyl)-4-fluorophenyl) acetamide], for which the 50% inhibitory concentration (IC50) in test [1] was at least 1000 nM; in test [2], below 300 nM.

One may read the IC50 as the concentration that inhibits the measured activity by half.

The values above are taken from US20230102554A1 (GB002, INC., priority 2019, published 2023).
